For 20 compounds, EC50, IC50 and logD results are on record in ChEMBL document CHEMBL3596163, “Discovery of imidazo[1,5-a]pyridines and -pyrimidines as potent and selective RORc inverse agonists” (Bioorg Med Chem Lett, 2015).

The target in data set [1] is T1, Nuclear receptor ROR-gamma (Homo sapiens, UniProt P51449).
T1 sequence (P51449 whole entry): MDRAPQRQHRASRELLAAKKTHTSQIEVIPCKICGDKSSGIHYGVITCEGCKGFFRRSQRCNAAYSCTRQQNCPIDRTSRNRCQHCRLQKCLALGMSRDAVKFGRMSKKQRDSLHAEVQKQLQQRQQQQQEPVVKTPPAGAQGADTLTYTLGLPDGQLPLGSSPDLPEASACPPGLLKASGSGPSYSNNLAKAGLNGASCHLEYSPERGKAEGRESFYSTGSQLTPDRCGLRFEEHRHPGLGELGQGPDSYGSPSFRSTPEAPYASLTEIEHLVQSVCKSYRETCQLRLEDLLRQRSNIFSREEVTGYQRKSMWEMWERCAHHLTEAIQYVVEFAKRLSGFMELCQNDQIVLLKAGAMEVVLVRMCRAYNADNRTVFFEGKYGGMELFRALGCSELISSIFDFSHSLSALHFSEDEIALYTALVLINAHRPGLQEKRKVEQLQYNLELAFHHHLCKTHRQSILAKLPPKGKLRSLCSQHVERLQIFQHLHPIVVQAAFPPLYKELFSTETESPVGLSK
Briefly: Inverse agonist activity at N-terminal 6xHis-tagged human RORc ligand binding domain (241 to 486) expressed in bacterial expression system assessed as inhibition of SRC1 co-activator peptide recruitment after 3 hrs by TR-FRET analysis. The data set is classed as functional. On the technique in general: In TR-FRET formats the signal depends on donor and acceptor labels being close together.

For data set [2], the target named is T2, Peroxisome proliferator-activated receptor gamma (Homo sapiens, UniProt P37231).
T2 sequence (P37231 whole entry): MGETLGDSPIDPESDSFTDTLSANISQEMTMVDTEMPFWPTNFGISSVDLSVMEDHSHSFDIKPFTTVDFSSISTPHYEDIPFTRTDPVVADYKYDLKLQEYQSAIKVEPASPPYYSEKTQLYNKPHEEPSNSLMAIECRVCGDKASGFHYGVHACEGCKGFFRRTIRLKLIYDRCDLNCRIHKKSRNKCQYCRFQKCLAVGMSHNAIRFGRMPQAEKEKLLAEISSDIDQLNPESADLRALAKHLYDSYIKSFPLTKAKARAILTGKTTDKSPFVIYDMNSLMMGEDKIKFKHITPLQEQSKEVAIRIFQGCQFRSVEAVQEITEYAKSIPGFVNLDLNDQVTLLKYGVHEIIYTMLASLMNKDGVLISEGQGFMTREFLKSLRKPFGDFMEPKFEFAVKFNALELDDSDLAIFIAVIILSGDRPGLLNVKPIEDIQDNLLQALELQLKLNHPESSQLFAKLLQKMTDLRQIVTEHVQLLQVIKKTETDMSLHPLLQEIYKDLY
Briefly: Displacement of fluormone PPARgamma green from GST-tagged human PPARgamma-LBD after 2 hrs by fluorescence polarization assay. For orientation: Polarisation of emitted light reports the rotation of a fluorescent probe.

Data set [3] is described as follows: Lipophilicity, log D of the compound at pH 7.4. The data set is classed as physicochemical. The following applies: buffer.

SMILES strings stand for the structures.

Broadly, the EC50 is the concentration needed to bring the measured effect to its halfway point. One may read the IC50 as the concentration that inhibits the measured activity by half. Higher therefore signals a need for much substance. As to `COc1cccc(C(F)(F)F)c1C(=O)c1nc(-c2ccc(C(=O)O)cc2F)c2n1CCCC2`, the concentration giving a half-maximal response (EC50) in data set [1] is 0.67 µM. For the same compound, the IC50 in data set [2] was found to be 9.1 µM.
What is called logD is lipophilicity at a set pH, counting ionised and neutral species. Higher therefore signals higher lipophilicity. Take `O=C(c1c(Cl)cccc1C(F)(F)F)c1nc(C2=CCC(C(=O)O)CC2)c2ccccn12` (centres undefined): the EC50 in data set [1] came out at 0.1 µM. In data set [2], this compound gave an IC50 of 1.8 µM. In addition, the logD in data set [3] stood at 1.5.
On to `O=C(O)c1ccc(-c2nc(C(=O)c3c(Cl)cccc3C(F)(F)F)n3cccnc23)cc1`, for which, in data set [1], the EC50 amounted to 0.084 µM. The compound further had an IC50 in data set [2] of 4.2 µM. In addition, in data set [3], the logD worked out at 0.3.
Turning to `O=C(c1c(Cl)cccc1C(F)(F)F)c1nc(N2CCC(O)(C(=O)O)CC2)c2ccccn12`, in data set [1], the EC50 stood at 6.8 µM.
In data set [3], `O=C(O)c1ccc(-c2nn(C(=O)c3c(Cl)cccc3C(F)(F)F)c3ccccc23)cc1` returned a logD of 2.9.
For the compound `O=C(c1c(Cl)cccc1C(F)(F)F)c1nc(N2CC[C@H](C(=O)O)[C@@H](O)C2)c2ccccn12` (stereo in doubt), the EC50 in data set [1] worked out at 0.44 µM. The same compound displayed an IC50 in data set [2] above 10 µM. The same compound yielded a logD in data set [3] of 0.3.
Taken in the same sequence, the figures for `COc1cccc(Cl)c1C(=O)c1nc(-c2ccc(C(=O)O)cc2F)c2n1CCCC2` were 0.24 µM, 5.5 µM and 0.8.
As to `N#Cc1cccc(Cl)c1C(=O)c1nc(-c2ccc(C(=O)O)cc2F)c2n1CCCC2`, in data set [1], the EC50 turned out to be 0.25 µM. In data set [2], the IC50 amounted to 7.7 µM. In data set [3], this compound had a log distribution coefficient (logD) of 0.7.
As for `O=C(c1c(Cl)cccc1C(F)(F)F)c1nc([C@H]2CC[C@@H](C(=O)O)CC2)c2ccccn12`, in data set [1], the EC50 came to 4.3 µM. This compound also had a logD in data set [3] of 1.8.
As to `N#Cc1cccc(C(F)(F)F)c1C(=O)c1nc(-c2ccc(C(=O)O)cc2F)c2n1CCCC2`, the EC50 in data set [1] amounted to 0.22 µM. For the same compound, in data set [2], the IC50 is above 10 µM. Also, the logD in data set [3] worked out at 0.7.
The matching figures for `O=C(O)c1ccc(-c2nc(C(=O)c3c(Cl)cccc3Cl)n3c2CCCC3)c(F)c1`: 0.077 µM, 1.1 µM and 1.5.
For `O=C(O)c1ccc(-n2nc(C(=O)c3c(Cl)cccc3C(F)(F)F)c3c2CCCC3)cc1`, in data set [1], the EC50 is above 10 µM. In addition, in data set [3], the logD was -0.3.
In the case of `O=C(O)c1ccc(-c2nc(C(=O)c3ccccc3C(F)(F)F)n3c2CCCC3)c(F)c1`, the EC50 in data set [1] was 0.84 µM. Moreover, the IC50 in data set [2] came out at 5.6 µM. Further, the logD in data set [3] stood at 1.4.
On to `O=C(c1c(Cl)cccc1C(F)(F)F)c1nc(N2CCC(C(=O)O)CC2)c2ccccn12`, for which, in data set [1], the concentration for a half-maximal effect (EC50) was determined as 0.54 µM. The IC50 in data set [2] was above 10 µM. The compound also showed a logD in data set [3] of 0.4.
Regarding `O=C(c1c(Cl)cccc1C(F)(F)F)c1nc([C@H]2CC[C@H](C(=O)O)CC2)c2ccccn12`, the EC50 in data set [1] is 0.4 µM. In addition, the logD in data set [3] worked out at 1.3.
Consider `O=C(O)c1ccc(-c2cn3c(n2)C(c2c(Cl)cccc2C(F)(F)F)OCC3)cc1` (centres undefined), for which the EC50 in data set [1] is above 10 µM.
Consider `O=C(O)c1ccc(-c2nc(C(=O)c3c(Cl)cccc3C(F)(F)F)n3c2CCCC3)cc1`, for which the EC50 in data set [1] stood at 0.058 µM. For the same compound, the IC50 in data set [2] turned out to be 2.1 µM. The compound further registered a log distribution coefficient (logD) in data set [3] of 0.8.
Consider `O=C(O)c1ccc(-c2nc(C(=O)c3c(F)cccc3Cl)n3c2CCCC3)c(F)c1`, for which the EC50 in data set [1] is 0.19 µM. This compound returned an IC50 in data set [2] of 2.9 µM. The same compound gave a log distribution coefficient (logD) in data set [3] of 1.2.
For `O=C(c1c(Cl)cccc1C(F)(F)F)c1nc(N2CC[C@@H](C(=O)O)[C@H](O)C2)c2ccccn12` (stereo in doubt), in data set [1], the EC50 was determined as 0.097 µM. The IC50 in data set [2] is above 10 µM. This compound came in with a logD in data set [3] of 0.4.
In the case of `O=C(O)c1ccc(-c2nc(C(=O)c3c(Cl)cccc3C(F)(F)F)n3ccncc23)cc1`, in data set [1], the EC50 was 2.6 µM. Besides, the logD in data set [3] came to 0.7.
